Assay [1] deals with T1, AhR (Homo sapiens, UniProt P35869).
T1 sequence (P35869 11-848): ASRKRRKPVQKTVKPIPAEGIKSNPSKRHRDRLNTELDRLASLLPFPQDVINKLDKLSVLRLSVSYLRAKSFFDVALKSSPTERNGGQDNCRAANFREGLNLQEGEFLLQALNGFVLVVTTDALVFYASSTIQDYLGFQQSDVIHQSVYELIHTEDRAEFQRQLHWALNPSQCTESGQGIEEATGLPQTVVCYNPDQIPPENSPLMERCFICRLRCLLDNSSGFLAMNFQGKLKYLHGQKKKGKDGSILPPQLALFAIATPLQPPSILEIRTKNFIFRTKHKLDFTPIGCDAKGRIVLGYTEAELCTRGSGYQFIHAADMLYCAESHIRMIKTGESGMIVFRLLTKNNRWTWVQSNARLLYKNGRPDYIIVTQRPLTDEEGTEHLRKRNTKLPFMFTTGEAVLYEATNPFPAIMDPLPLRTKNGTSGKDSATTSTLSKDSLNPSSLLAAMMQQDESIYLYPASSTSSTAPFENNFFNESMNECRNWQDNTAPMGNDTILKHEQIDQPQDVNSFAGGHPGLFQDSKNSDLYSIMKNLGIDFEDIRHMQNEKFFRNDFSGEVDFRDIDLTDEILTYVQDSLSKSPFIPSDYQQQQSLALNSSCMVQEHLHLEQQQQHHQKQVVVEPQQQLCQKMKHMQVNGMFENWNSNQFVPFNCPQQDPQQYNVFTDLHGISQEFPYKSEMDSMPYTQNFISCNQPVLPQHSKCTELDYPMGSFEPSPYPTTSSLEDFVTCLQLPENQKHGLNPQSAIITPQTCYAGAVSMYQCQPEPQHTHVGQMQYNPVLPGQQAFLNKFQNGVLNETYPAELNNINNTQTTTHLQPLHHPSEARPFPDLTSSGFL
Kind of assay: In Vitro Assay 1: XRE-luciferase reporter assay, antagonism in human cell line (HepG2). The conditions noted are these: Assay 1: AhR-Luc Human Antagonism (IC50, nM), 6 hours. A general note: Reporter assays use an easily measured gene product as a stand-in for the process of interest.

In assay [2] the target is T1, AhR. Kind of assay: In Vitro Assay 4: endogenous AhR activity assay (CYP1A1 and CYP1B1 mRNA, qRT-PCR, HepG2 cells). On the technique in general: In qPCR the cycle at which signal appears reflects the starting amount.
Protocol: In Vitro Assay 4: Endogenous AhR Activity Assay
HepG2 cells were seeded in 12-well plate (3×10^5 cells/well). A day after seeding, the cells were treated with TCDD (10 nM) alone or with compounds (123 nM) for 4 hours. Total RNA was extracted using Trizol (Thermo Fisher Scientific). cDNA synthesis and quantitative RT-PCR (qRT-PCR) assays were performed using PrimeScript™ RT Master Mix (TAKARA) and TB Green™ Premix Ex Taq™ II (TAKARA) in accordance with manufacturer's instruction. For the measurement of endogenous AhR activity, relative mRNA levels of CYP1A1 and CYP1B1 were quantitated relative to β-actin mRNA by the comparative Ct (ΔΔCt) method. The percent inhibitions were calculated according to:
For assay [3], the target named is T1, AhR. The assay is described as follows: In Vitro Assay 3: XRE-luciferase reporter assay, agonism in human cell line (HepG2). It is filed as cell-based. Details: endogenous in cells; host or cells: HepG2. As to conditions: HepG2, tryptophan free medium, 6 hours, no agonist, read-out: Assay 3: AhR-Luc Human Agonism (EC50). The method, then: In Vitro Assay 3: Agonism in Human Cell Line
HepG2 (human hepatoma cell line) cells co-transfected with XRE-Luc and Nano-Luc plasmids were plated in tryptophan free medium containing 1% of dialyzed fetal bovine serum and incubated overnight at 37° C. in a CO2 incubator. After 24 hours, cells were treated for 6 hours with test compounds or not. […] As a positive control, cells were incubated with TCDD.

Setting [4] is: values marked *: kynurenine 50 μM.
The mark [5] stands for this setting: HepG2, read-out: CYP1A1 (% Inhibition).
Setting [6] is: HepG2, read-out: CYP1B1 (% Inhibition).
The mark [7] stands for this setting: unmarked values: kynurenine 200 μM.

Like-named read-outs stand apart in the source and are kept apart here.

For orientation: IC50 means the midpoint of a concentration-inhibition curve. One may read the inhibition as the relative decrease from the control value, in per cent. Consider `CC1CCN(c2cc(-c3ccc(Cl)cc3)nc(-c3cccnc3)n2)CC1` [Example 27, 4-(4-chlorophenyl)-6-(4-methylpiperidin-1-yl)-2-(pyridin-3-yl)pyrimidine], for which the IC50 in assay [1] (setting [4]) was < 10 nM. The inhibition at 0.123 µM is 68.4% in assay [2] (setting [5]) and 90.3% in assay [2] (setting [6]).

Take `OCC1CCN(c2cc(-c3ccc(Cl)cc3)nc(-c3cccnc3)n2)CC1` [Example 42, (1-(6-(4-chlorophenyl)-2-(pyridin-3-yl)pyrimidin-4-yl)piperidin-4-yl)methanol]: the IC50 in assay [1] (setting [4]) was < 10 nM. The inhibition at 0.123 µM is 98.8% in assay [2] (setting [5]) and 99.3% in assay [2] (setting [6]).

In the case of `OCCC1CCN(c2cc(-c3ccc(Cl)cc3)nc(-c3cccnc3)n2)CC1` [Example 43, 2-(1-(6-(4-chlorophenyl)-2-(pyridin-3-yl)pyrimidin-4-yl)piperidin-4-yl)ethan-1-ol], the IC50 in assay [1] (setting [4]) is < 10 nM. Besides, the inhibition at 0.123 µM was found to be 97.1% in assay [2] (setting [5]) and 100% in assay [2] (setting [6]).

`CC(=O)N1CCC(Nc2cc(-c3ccc(Cl)cc3)nc(-c3cccnc3)n2)CC1` [Example 146, 1-(4-((6-(4-chlorophenyl)-2-(pyridin-3-yl)pyrimidin-4-yl)amino)piperidin-1-yl)ethan-1-one] came in with an IC50 in assay [1] (setting [4]) of 10 to 100 nM. The inhibition at 0.123 µM in assay [2] (setting [5]) worked out at 41.8%; in assay [2] (setting [6]) it was 77.2%.

In general, EC50 refers to the concentration giving half of the maximal effect. On to `CC(CO)N1CCN(c2cc(-c3ccc(Cl)cc3)nc(-c3cccnc3)n2)CC1` (stereo not drawn) [Example 224, 2-(4-(6-(4-chlorophenyl)-2-(pyridin-3-yl)pyrimidin-4-yl)piperazin-1-yl)propan-1-ol], for which the figures for the EC50 in assay [3] (class in brackets of the cell) and in assay [3] (number of the cell) were > 10 µM and > 30 µM, respectively. In addition, the IC50 in assay [1] (setting [4]) was < 10 nM.

On to `COCC(=O)NC1CCN(c2cc(-c3ccc(Cl)cc3)nc(-c3cccnc3)n2)CC1` [Example 225, N-(1-(6-(4-chlorophenyl)-2-(pyridin-3-yl)pyrimidin-4-yl)piperidin-4-yl)-2-methoxyacetamide], for which the figures for the EC50 in assay [3] (class in brackets of the cell) and in assay [3] (number of the cell) were > 10 µM and > 30 µM, respectively. Besides, the IC50 in assay [1] (setting [4]) is < 10 nM.

As for `COc1ccc(-c2cc(N3CCC(CO)CC3)nc(-c3cccnc3)n2)cc1` [Example 228, (1-(6-(4-methoxyphenyl)-2-(pyridin-3-yl)pyrimidin-4-yl)piperidin-4-yl)methanol], the IC50 in assay [1] (setting [7]) lay in the range of 10 to 100 nM. The inhibition at 0.123 µM in assay [2] (setting [5]) was determined as 107%; in assay [2] (setting [6]), 101%.

As for `Cc1ccc(-c2cc(N3CCC(CO)CC3)nc(-c3cccnc3)n2)cc1` [Example 229, (1-(2-(pyridin-3-yl)-6-(p-tolyl)pyrimidin-4-yl)piperidin-4-yl)methanol], the EC50 in assay [3] (class in brackets of the cell) is > 10 µM; in assay [3] (number of the cell), > 30 µM. For the same molecule, the IC50 in assay [1] (setting [7]) is 10 to 100 nM. Also, the inhibition at 0.123 µM in assay [2] (setting [5]) was 108%; in assay [2] (setting [6]), 101%.

`OCC1CCN(c2cc(-c3ccc(Cl)c(F)c3)nc(-c3cccnc3)n2)CC1` [Example 246, (1-(6-(4-chloro-3-fluorophenyl)-2-(pyridin-3-yl)pyrimidin-4-yl)piperidin-4-yl)methanol]: the EC50 was > 10 µM in assay [3] (class in brackets of the cell) and > 30 µM in assay [3] (number of the cell). The IC50 in assay [1] (setting [7]) was < 10 nM.

On to `OC[C@H]1CCN(c2cc(-c3ccc(C(F)(F)F)cc3)nc(-c3cccnc3)n2)C[C@@H]1O` [Example 260, (3R,4R)-4-(hydroxymethyl)-1-(2-(pyridin-3-yl)-6-(4-(trifluoromethyl)phenyl)pyrimidin-4-yl)piperidin-3-ol], for which the EC50 was > 10 µM in assay [3] (class in brackets of the cell) and > 30 µM in assay [3] (number of the cell). Further, the IC50 in assay [1] (setting [7]) is < 10 nM.

`OC[C@@H]1CCN(c2cc(-c3ccc(C(F)(F)F)cc3)nc(-c3cccnc3)n2)C[C@H]1O` [Example 262, (3S,4S)-4-(hydroxymethyl)-1-(2-(pyridin-3-yl)-6-(4-(trifluoromethyl)phenyl)pyrimidin-4-yl)piperidin-3-ol]: the EC50 is > 10 µM in assay [3] (class in brackets of the cell) and > 30 µM in assay [3] (number of the cell). In addition, the IC50 in assay [1] (setting [7]) was < 10 nM.

With `OCC1CCN(c2cc(-c3ccc(Cl)c(O)c3)nc(-c3cccnc3)n2)CC1` [Example 273, 2-chloro-5-(6-(4-(hydroxymethyl)piperidin-1-yl)-2-(pyridin-3-yl)pyrimidin-4-yl)phenol], the EC50 in assay [3] (class in brackets of the cell) was > 10 µM; in assay [3] (number of the cell), > 30 µM. In assay [1] (setting [7]), this molecule displayed an IC50 of 10 to 100 nM.

For `OCC1CCN(c2cc(-c3ccc(N4CCOCC4)c(F)c3)nc(-c3cccnc3)n2)CC1` [Example 276, (1-(6-(3-fluoro-4-morpholinophenyl)-2-(pyridin-3-yl)pyrimidin-4-yl)piperidin-4-yl)methanol], the EC50 in assay [3] (class in brackets of the cell) was > 10 µM; in assay [3] (number of the cell), > 30 µM. Also, in assay [1] (setting [7]), the IC50 was < 10 nM.

On to `OCC1CCN(c2cc(-c3ccc(OC4CCCCO4)cc3)nc(-c3cccnc3)n2)CC1` (stereo not drawn) [Example 278, (1-(2-(pyridin-3-yl)-6-(4-((tetrahydro-2H-pyran-2-yl)oxy)phenyl)pyrimidin-4-yl)piperidin-4-yl)methanol], for which the EC50 was > 10 µM in assay [3] (class in brackets of the cell) and > 30 µM in assay [3] (number of the cell). The molecule also yielded an IC50 in assay [1] (setting [7]) of 10 to 100 nM.

As for `OCC1CCN(c2cc(-c3ccc(N4CCOCC4)nc3)nc(-c3cccnc3)n2)CC1` [Example 289, (1-(6-(6-morpholinopyridin-3-yl)-2-(pyridin-3-yl)pyrimidin-4-yl)piperidin-4-yl)methanol], the EC50 is > 10 µM in assay [3] (class in brackets of the cell) and > 30 µM in assay [3] (number of the cell). For the same molecule, the IC50 in assay [1] (setting [7]) is < 10 nM.

Regarding `O[C@H]1CON(c2cc(-c3ccc(C(F)(F)F)cc3)nc(-c3cccnc3)n2)C1` [Example 314, (R)-2-(2-(pyridin-3-yl)-6-(4-(trifluoromethyl)phenyl)pyrimidin-4-yl)isoxazolidin-4-ol], the EC50 in assay [3] (class in brackets of the cell) is > 10 µM; in assay [3] (number of the cell) it was > 30 µM. Also, the half-inhibitory concentration (IC50) in assay [1] (setting [7]) was < 10 nM.

With `O=S(=O)(C(F)F)N1CCN(c2cc(-c3ccc(Cl)cc3)nc(-c3cccnc3)n2)CC1` [Example 339, 4-(4-chlorophenyl)-6-(4-((difluoromethyl)sulfonyl)piperazin-1-yl)-2-(pyridin-3-yl)pyrimidine], the IC50 in assay [1] (setting [7]) fell in the range of 10 to 100 nM. Further, the inhibition at 0.123 µM in assay [2] (setting [5]) came to 84.7%.

For `O=S(=O)(CCO)N1CCN(c2cc(-c3ccc(C(F)(F)F)cc3)nc(-c3cccnc3)n2)CC1` [Example 349, 2-((4-(2-(pyridin-3-yl)-6-(4-(trifluoromethyl)phenyl)pyrimidin-4-yl)piperazin-1-yl)sulfonyl)ethan-1-ol], the IC50 in assay [1] (setting [7]) is < 10 nM. Besides, the inhibition at 0.123 µM in assay [2] (setting [5]) came out at 97.6%.

With `O=C(CCCO)N1CCN(c2cc(-c3ccc(Cl)cc3)nc(-c3cccnc3)n2)CC1` [Example 361, 1-(4-(6-(4-chlorophenyl)-2-(pyridin-3-yl)pyrimidin-4-yl)piperazin-1-yl)-4-hydroxybutan-1-one], the EC50 is > 10 µM in assay [3] (class in brackets of the cell) and > 30 µM in assay [3] (number of the cell). The IC50 in assay [1] (setting [7]) was < 10 nM.
